Experimental data taken from the Kinase Knowledgebase extract (Sharma et al. 2016).

What was measured:
[1] = target: PIK3CA (human) (UniProt P42336); test: Enzyme Assay
[2] = target: PIK3CB (Human) (UniProt P42338); test: Enzyme Assay
[3] = target: PIK3CD (Human) (UniProt O00329); test: Enzyme Assay
[4] = target: PIK3CG (human) (UniProt P48736); test: Enzyme Assay
[5] = target: PIK3CD (Human) (UniProt O00329); test: Cell-Based Assay; details: b cells

Chain of PIK3CD (Human) (O00329 whole entry, looked up): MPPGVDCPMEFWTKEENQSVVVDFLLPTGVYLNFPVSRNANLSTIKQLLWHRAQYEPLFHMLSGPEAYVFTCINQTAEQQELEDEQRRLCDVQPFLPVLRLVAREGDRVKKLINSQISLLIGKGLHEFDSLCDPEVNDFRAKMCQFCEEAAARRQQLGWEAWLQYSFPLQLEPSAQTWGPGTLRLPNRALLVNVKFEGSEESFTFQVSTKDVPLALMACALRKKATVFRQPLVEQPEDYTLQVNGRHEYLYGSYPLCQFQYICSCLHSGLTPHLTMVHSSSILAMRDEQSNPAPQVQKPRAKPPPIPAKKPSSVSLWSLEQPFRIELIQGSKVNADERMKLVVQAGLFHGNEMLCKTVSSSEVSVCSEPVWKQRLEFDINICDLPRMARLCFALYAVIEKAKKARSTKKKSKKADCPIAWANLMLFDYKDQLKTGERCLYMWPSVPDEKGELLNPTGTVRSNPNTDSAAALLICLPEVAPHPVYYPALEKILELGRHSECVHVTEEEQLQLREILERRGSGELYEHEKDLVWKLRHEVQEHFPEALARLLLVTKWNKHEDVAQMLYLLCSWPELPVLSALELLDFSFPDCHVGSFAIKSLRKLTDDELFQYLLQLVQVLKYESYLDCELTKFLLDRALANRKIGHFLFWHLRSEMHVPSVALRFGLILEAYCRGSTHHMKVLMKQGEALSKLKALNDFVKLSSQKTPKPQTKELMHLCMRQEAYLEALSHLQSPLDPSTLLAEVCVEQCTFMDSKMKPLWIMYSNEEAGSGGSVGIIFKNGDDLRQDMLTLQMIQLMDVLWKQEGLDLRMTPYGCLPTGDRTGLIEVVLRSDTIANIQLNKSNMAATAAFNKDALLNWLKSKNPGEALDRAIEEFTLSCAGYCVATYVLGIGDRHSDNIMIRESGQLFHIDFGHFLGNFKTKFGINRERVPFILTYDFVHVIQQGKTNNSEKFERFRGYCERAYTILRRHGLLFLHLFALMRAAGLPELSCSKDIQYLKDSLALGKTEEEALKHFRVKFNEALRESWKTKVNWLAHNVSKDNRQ
Chain of PIK3CG (human) (P48736 whole entry, looked up): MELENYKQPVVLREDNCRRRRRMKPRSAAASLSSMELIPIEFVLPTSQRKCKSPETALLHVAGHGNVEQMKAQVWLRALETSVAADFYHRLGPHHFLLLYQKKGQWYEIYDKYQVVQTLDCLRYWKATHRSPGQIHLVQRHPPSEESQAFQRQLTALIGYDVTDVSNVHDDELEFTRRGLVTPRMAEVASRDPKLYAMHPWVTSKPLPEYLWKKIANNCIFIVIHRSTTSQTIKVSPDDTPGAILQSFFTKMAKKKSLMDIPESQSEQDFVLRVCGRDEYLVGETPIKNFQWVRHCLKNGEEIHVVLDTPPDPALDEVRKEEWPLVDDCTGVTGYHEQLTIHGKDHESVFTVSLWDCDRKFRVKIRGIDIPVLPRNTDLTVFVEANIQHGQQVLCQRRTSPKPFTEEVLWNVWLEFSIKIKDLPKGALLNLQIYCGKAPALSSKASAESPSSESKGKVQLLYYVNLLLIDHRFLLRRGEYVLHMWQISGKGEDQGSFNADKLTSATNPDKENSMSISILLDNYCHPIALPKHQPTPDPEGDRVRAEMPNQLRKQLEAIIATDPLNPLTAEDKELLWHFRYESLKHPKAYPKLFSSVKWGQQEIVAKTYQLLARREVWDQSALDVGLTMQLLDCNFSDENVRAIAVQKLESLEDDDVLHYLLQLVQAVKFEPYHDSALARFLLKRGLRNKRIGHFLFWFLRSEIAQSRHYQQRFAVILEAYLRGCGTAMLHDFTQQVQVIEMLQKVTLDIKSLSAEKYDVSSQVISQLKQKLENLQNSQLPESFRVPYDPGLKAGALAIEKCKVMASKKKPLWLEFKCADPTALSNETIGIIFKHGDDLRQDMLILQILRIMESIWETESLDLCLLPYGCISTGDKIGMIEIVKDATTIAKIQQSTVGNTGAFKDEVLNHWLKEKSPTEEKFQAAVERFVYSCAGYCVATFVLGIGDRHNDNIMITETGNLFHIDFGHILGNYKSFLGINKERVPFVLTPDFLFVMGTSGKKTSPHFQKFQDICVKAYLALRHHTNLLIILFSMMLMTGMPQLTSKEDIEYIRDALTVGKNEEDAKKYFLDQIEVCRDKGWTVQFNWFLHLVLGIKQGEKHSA
Chain of PIK3CA (human) (P42336 whole entry, looked up): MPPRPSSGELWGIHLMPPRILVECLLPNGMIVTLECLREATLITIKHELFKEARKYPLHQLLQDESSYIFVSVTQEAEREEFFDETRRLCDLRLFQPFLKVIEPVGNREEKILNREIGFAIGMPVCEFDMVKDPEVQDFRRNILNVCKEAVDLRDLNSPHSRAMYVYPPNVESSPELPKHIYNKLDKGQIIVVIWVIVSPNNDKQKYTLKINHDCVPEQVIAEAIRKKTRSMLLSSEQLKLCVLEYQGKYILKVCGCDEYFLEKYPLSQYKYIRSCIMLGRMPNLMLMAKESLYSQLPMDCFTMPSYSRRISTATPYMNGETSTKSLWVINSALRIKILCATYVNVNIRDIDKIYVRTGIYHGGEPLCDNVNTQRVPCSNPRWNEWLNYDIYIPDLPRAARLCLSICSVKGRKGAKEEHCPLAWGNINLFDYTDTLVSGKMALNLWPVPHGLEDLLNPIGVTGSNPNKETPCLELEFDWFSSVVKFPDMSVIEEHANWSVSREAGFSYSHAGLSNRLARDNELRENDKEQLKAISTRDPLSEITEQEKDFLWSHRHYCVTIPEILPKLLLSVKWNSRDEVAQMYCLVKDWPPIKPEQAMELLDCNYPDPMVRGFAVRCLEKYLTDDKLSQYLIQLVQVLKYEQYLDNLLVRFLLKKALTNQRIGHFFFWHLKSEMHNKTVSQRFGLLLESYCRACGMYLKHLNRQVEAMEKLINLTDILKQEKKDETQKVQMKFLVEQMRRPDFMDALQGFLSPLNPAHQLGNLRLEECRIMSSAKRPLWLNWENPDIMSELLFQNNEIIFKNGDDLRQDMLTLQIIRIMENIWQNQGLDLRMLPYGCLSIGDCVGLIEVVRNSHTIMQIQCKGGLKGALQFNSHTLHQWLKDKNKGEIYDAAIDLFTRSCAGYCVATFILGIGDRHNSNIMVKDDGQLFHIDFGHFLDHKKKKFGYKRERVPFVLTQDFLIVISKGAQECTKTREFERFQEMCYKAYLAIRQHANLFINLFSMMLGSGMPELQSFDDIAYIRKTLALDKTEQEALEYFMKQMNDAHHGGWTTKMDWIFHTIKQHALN
Chain of PIK3CB (Human) (P42338 whole entry, looked up): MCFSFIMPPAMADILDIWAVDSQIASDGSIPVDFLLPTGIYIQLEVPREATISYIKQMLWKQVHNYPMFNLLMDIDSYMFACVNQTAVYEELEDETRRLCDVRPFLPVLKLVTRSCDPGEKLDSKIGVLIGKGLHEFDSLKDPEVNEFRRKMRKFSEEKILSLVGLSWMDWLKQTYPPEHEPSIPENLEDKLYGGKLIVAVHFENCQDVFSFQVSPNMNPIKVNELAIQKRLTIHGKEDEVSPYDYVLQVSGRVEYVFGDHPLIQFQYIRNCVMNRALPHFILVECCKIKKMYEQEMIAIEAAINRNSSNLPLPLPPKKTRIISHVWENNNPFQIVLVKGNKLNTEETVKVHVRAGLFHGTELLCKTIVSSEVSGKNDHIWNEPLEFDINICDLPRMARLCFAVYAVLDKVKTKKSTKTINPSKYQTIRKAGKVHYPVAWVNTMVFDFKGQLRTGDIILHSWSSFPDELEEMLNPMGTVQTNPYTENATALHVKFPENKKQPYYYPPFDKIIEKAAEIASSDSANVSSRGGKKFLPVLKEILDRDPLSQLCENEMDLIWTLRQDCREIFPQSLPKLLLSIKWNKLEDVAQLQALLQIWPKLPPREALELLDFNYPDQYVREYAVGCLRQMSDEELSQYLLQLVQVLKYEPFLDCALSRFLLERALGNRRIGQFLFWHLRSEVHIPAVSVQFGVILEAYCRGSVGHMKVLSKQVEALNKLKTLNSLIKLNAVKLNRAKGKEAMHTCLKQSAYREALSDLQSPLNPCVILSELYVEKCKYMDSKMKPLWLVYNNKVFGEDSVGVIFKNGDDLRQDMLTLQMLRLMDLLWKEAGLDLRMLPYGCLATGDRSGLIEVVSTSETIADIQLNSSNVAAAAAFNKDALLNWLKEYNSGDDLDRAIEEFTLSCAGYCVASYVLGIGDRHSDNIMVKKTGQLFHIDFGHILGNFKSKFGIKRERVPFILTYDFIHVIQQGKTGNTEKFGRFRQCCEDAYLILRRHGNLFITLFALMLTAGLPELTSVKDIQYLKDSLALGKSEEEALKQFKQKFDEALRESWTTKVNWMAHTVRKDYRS

| SMILES | IC50 [1] | IC50 [2] | IC50 [3] | IC50 [4] | IC50 [5] |
| --- | --- | --- | --- | --- | --- |
| C[C@H](Nc1ncnc2[nH]cnc12)c1cc2cccc(Cl)c2nc1-c1ccccc1F | 26000 nM | 420 nM | 3.2 nM | 67 nM | 3.6 nM |
| C[C@H](Nc1ncnc2[nH]cnc12)c1cc2cccc(Cl)c2nc1-c1cccc(F)c1 | 5700 nM | 370 nM | 12 nM | 38 nM | 2.4 nM |
| Cc1ccccc1-c1nc2c(C)cccc2cc1CCc1ncnc2[nH]cnc12 | > 125000 nM | > 12000 nM | 3600 nM | 18000 nM | – |
| Cc1ccccc1-c1nc2c(C)cccc2cc1[C@@H](C)Oc1ncnc2[nH]ccc12 | > 125000 nM | 7600 nM | 2600 nM | 22000 nM | – |
| C[C@H](Nc1ncnc2[nH]cnc12)c1cc2cccc(F)c2nc1-c1ccccn1 | 125000 nM | 2200 nM | 29 nM | 1700 nM | 14 nM |
| COc1ccccc1-c1nc2c(C)cccc2cc1CSc1ncnc2[nH]cnc12 | 53000 nM | 49000 nM | 240 nM | 8600 nM | 840 nM |
| C[C@H](Nc1ncnc2[nH]cnc12)c1cc2c(F)cc(F)cc2nc1-c1ccccn1 | 6900 nM | 1900 nM | 16 nM | 610 nM | – |
| COc1ccccc1-c1nc2c(C)cccc2cc1COc1ncnc2[nH]cnc12 | > 125000 nM | 2900 nM | 44 nM | 2600 nM | 88 nM |
| C[C@H](Nc1ncnc2[nH]cnc12)c1cc2cccc(F)c2nc1-c1cc(F)cc(F)c1 | 9000 nM | 4500 nM | 12 nM | 360 nM | 11 nM |
| C[C@H](Nc1ncnc2[nH]cnc12)c1nc2ccc(F)cc2nc1-c1ccccn1 | 22000 nM | 4100 nM | 24 nM | 890 nM | 18 nM |
| Cc1ccccc1-c1nc2c(C)cccc2cc1[C@H](C)Oc1ncnc2[nH]ccc12 | 6500 nM | 1000 nM | 7.1 nM | 93 nM | 4.3 nM |
| Cc1ncc(F)cc1-c1nc2c(Cl)cccc2cc1[C@H](C)Nc1ncnc2[nH]cnc12 | – | 1800 nM | 18 nM | 230 nM | 17 nM |
| Cc1ccccc1-n1c(CNc2nc(N)nc3[nH]cnc23)nc2cccc(C)c2c1=O | 10000 nM | 1800 nM | 25 nM | 140 nM | – |
| C[C@H](Nc1ncnc2[nH]cnc12)c1cc2cccc(Cl)c2nc1-c1cccc(S(C)(=O)=O)c1 | 47000 nM | 1100 nM | 15 nM | 770 nM | 56 nM |
| C[C@H](Nc1ncnc2[nH]cnc12)c1cc2cccc(C#N)c2nc1-c1ccccn1 | 62000 nM | 5200 nM | 43 nM | 1100 nM | 47 nM |
| C[C@H](Nc1ncnc2[nH]cnc12)c1nc2cccc(Cl)c2nc1-c1cccc(F)c1 | 8100 nM | 1400 nM | 10 nM | 160 nM | 14 nM |
| Cc1ccccc1-c1nc2c(C)cccc2cc1CNc1ncnc2[nH]cnc12 | 37000 nM | 2100 nM | 41 nM | 290 nM | 51 nM |
| Cc1nnc2ccc(Cl)cc2c1N1CC(C)(C)c2ccc(N3CCOCC3)cc21 | – | – | 19000 nM | – | – |
| C[C@H](Nc1ncnc2[nH]cnc12)c1cc2cccc(F)c2nc1-c1cccc(F)c1 | – | 1100 nM | 10 nM | 250 nM | 5.2 nM |
| Cc1ccccc1-c1nc2c(C)cccc2cc1COc1ncnc2[nH]cnc12 | 42000 nM | 1700 nM | 17 nM | 580 nM | 47 nM |
| C[C@H](Nc1ncnc2[nH]cnc12)c1cc2ccc(F)cc2nc1-c1ccccc1S(C)(=O)=O | 20000 nM | 2100 nM | 11 nM | 340 nM | 6.8 nM |

Now from value to compound:

| IC50 [1] | IC50 [2] | IC50 [3] | IC50 [4] | IC50 [5] | SMILES |
| --- | --- | --- | --- | --- | --- |
| 46000 nM | 1090 nM | 5.2 nM | 440 nM | 12 nM | C[C@H](Nc1ncnc2[nH]cnc12)c1nc2cccc(Cl)c2nc1-c1ccccn1 |
| 52000 nM | 3700 nM | 82 nM | 840 nM | 28 nM | Fc1cccc(-c2nc3c(Cl)cccc3cc2CNc2ncnc3[nH]cnc23)c1 |
| 13000 nM | 1260 nM | 18 nM | 120 nM | 4.3 nM | Cc1ncccc1-c1nc2c(Cl)cccc2cc1[C@H](C)Nc1ncnc2[nH]cnc12 |
| 46000 nM | 3900 nM | 39 nM | 450 nM | 25 nM | Clc1ccccc1-c1nc2c(Cl)cccc2cc1CNc1ncnc2[nH]cnc12 |
| 81000 nM | 2900 nM | 16 nM | 830 nM | 15 nM | C[C@H](Nc1ncnc2[nH]cnc12)c1cc2cccc(F)c2nc1-c1cccnc1 |
| 125000 nM | 1900 nM | 18 nM | 560 nM | 13 nM | C[C@H](Nc1ncnc2[nH]cnc12)c1cc2cccc(F)c2nc1-c1cc(F)ccc1F |
| 14000 nM | 1300 nM | 6.6 nM | 120 nM | 13 nM | C[C@H](Nc1ncnc2[nH]cnc12)c1cc2ccc(F)cc2nc1-c1cccc(F)c1 |
| > 125000 nM | 3300 nM | 38 nM | 710 nM | 270 nM | Cc1ccccc1-c1nc2c(C)cccc2cc1COc1ncnc2[nH]ccc12 |
| 125000 nM | 3600 nM | 59 nM | 6600 nM | 21 nM | C[C@H](Nc1ncnc2[nH]cnc12)c1nc2c(Cl)cccc2nc1-c1ccccn1 |
| 36000 nM | 1500 nM | 8 nM | 140 nM | 3.6 nM | C[C@H](Nc1ncnc2[nH]cnc12)c1cc2cccc(Cl)c2nc1-c1ccccc1Cl |
| 14000 nM | 670 nM | 66 nM | 150 nM | 3.2 nM | C[C@H](Nc1ncnc2[nH]cnc12)c1cc2cccc(Cl)c2nc1-c1ccccn1 |
